The target of experiment [1] is T1, TBK1 (Homo sapiens, UniProt Q9UHD2).
T1 construct: TBK1 and IKKε were expressed and purified as full length recombinant proteins; made in house
T1 sequence (Q9UHD2 1-729): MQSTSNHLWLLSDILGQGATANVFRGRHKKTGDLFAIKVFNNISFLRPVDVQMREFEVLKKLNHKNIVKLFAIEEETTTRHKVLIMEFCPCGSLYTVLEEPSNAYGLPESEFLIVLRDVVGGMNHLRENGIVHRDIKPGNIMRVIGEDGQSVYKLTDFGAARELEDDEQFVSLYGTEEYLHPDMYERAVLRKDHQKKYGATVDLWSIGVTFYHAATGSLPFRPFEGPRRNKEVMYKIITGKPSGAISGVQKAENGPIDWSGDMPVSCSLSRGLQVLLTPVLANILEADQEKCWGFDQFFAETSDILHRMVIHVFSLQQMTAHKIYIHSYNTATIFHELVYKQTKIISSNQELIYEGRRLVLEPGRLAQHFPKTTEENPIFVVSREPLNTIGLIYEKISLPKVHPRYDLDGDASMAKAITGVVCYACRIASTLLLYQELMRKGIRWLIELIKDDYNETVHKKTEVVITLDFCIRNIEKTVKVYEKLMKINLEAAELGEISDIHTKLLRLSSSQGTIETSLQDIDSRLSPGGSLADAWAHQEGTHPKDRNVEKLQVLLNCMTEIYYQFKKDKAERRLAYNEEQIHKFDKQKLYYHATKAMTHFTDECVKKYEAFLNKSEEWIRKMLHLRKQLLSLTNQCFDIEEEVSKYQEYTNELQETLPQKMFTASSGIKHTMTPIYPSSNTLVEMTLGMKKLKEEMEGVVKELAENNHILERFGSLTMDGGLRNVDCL
The experiment in a line: TR-FRET enzymatic activity assay, TBK1. Further: full length recombinant TBK1 at 2.5 nM. It is filed as biochemical. An outline of the steps:
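TR-FRET detected phosphorylation of a biotinylated serine/threonine peptide using 125 nM streptavidin XL665 plus europium-labelled anti-phospho antibody. Reactions with full-length recombinant kinase ran 240 min at 25 °C before EDTA quench. Values are geometric-mean IC50s (n ≥ 4) from four-parameter dose-response fits against staurosporine and DMSO controls.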
On the technique in general: TR-FRET usually uses a lanthanide donor and a delayed reading to cut background.

Experiment [2] concerns the target T2, IKKε (Homo sapiens, UniProt Q14164).
T2 construct: TBK1 and IKKε were expressed and purified as full length recombinant proteins; made in house
T2 sequence (Q14164 1-716): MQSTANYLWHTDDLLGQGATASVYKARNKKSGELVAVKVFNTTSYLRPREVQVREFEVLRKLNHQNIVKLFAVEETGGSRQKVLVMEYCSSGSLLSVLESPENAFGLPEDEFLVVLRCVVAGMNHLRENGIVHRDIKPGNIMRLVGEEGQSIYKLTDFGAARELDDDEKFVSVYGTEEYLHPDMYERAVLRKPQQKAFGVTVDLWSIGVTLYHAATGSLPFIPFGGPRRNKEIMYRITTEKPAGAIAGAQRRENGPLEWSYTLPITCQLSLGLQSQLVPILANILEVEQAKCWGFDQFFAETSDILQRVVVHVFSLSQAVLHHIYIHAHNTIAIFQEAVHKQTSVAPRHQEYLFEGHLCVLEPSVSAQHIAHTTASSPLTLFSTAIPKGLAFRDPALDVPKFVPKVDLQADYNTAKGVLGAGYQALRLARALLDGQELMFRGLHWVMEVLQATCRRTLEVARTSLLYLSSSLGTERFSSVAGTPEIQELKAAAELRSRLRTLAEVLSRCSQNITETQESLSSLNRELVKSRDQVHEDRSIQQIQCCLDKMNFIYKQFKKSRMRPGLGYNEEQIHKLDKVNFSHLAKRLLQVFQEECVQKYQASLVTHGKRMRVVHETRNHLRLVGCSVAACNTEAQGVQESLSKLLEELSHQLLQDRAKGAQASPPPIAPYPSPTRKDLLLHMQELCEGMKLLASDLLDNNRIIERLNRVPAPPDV
The experiment in a line: TR-FRET enzymatic activity assay, IKKε. Further: full length recombinant IKKε at 0.3 nM. Conditions: read-out: IKKϵ IC50. It is filed as biochemical. The essentials: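 IC50 values are geometric means of at least four determinations, fitted to a four-parameter curve after normalising to 1 μM staurosporine and DMSO. Signal: Eu-cryptate anti-phospho antibody plus 125 nM streptavidin-XL665 on a biotinylated peptide. Full-length recombinant enzyme reacted 240 min, 25 °C, then EDTA-quenched.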

pIC50: −log10 of the molar value. Some results are limits rather than exact numbers.

With `Cn1cc([C@H]2C[C@@H]2C(=O)Nc2cc(-c3ccc(O[C@H]4CCN(C(=O)CO)C[C@H]4F)c(C#N)c3)ccn2)cn1` [Example 126, (1S,2S)—N-(4-(3-Cyano-4-(((3R,4S)-3-fluoro-1-(2-hydroxyacetyl)piperidin-4-yl)oxy)phenyl)pyridin-2-yl)-2-(1-methyl-1H-pyrazol-4-yl)cyclopropane-1-carboxamide], the pIC50 (commonly −log10 of the IC50, conventionally taken in molar units) in experiment [1] was 8.24; in experiment [2], 7.85.

Consider `N#Cc1cc(-c2ccnc(NC(=O)[C@@H]3C[C@H]3c3ccncc3)c2)ccc1OC1CCOCC1` (relative stereo) [Example 151, Trans-N-(4-(3-cyano-4-((tetrahydro-2H-pyran-4-yl)oxy)phenyl)pyridin-2-yl)-2-(pyridin-4-yl)cyclopropane-1-carboxamide], for which the values for the negative logarithm of the IC50 (pIC50) in experiment [1] and in experiment [2] were 7.12 and 6.70, respectively.

Regarding `Cn1cc([C@@H]2C[C@H]2C(=O)Nc2cc(-c3ccc(OC4CCOCC4)c(C#N)c3)ccn2)cn1` (relative stereo) [Example 120, (1,2-Trans)-N-(4-(3-cyano-4-((tetrahydro-2H-pyran-4-yl)oxy)phenyl)pyridin-2-yl)-2-(1-methyl-1H-pyrazol-4-yl)cyclopropane-1-carboxamide], the pIC50 in experiment [1] is 7.54; in experiment [2], 6.74.

For `Cn1ccc([C@H]2C[C@@H]2C(=O)Nc2cc(-c3ccc(O[C@H]4CCN(C(=O)CO)CC4(F)F)c(C#N)c3)ccn2)n1` [Example 103, (1S,2S)—N-(4-(3-cyano-4-(((S)-3,3-difluoro-1-(2-hydroxyacetyl)piperidin-4-yl)oxy)phenyl)pyridin-2-yl)-2-(1-methyl-1H-pyrazol-3-yl)cyclopropane-1-carboxamide], the pIC50 in experiment [1] was 8.24; in experiment [2], 7.84.

For the compound `CC(=O)NC1C2CC1C2C(=O)Nc1cc(-c2ccc(OC3CCOCC3)c(C#N)c2)ccn1` (stereo not drawn) [Example 55, 4-acetamido-N-(4-(3-cyano-4-((tetrahydro-2H-pyran-4-yl)oxy)phenyl)pyridin-2-yl)bicyclo[1.1.1]pentane-2-carboxamide], the pIC50 in experiment [1] and in experiment [2] was under 6.00 each time.

Regarding `N#Cc1cc(-c2cc(NC(=O)C3CC3)ncn2)ccc1O[C@H]1CCN(C(=O)CO)CC1(F)F` [Example 20, (S)—N-(6-(3-cyano-4-((3,3-difluoro-1-(2-hydroxyacetyl)piperidin-4-yl)oxy)phenyl)pyrimidin-4-yl)cyclopropanecarboxamide], the negative-log IC50 (pIC50) in experiment [1] is 8.32; in experiment [2], 8.02.

Regarding `N#Cc1cc(-c2ccnc(NC(=O)[C@H]3C[C@@H]3c3cscn3)c2)ccc1OC1CCOCC1` (relative stereo) [Example 123, (1,2-Trans)-N-(4-(3-cyano-4-((tetrahydro-2H-pyran-4-yl)oxy)phenyl)pyridin-2-yl)-2-(thiazol-4-yl)cyclopropane-1-carboxamide], the negative logarithm of the IC50 (pIC50) in experiment [1] was 6.03; in experiment [2], under 6.00.

`N#Cc1cc(-c2ccnc(NC(=O)[C@@H]3C[C@H]3c3cccnc3)c2)ccc1O[C@H]1CCN(C(=O)[C@@H](O)CO)CC1(F)F` [Example 133, (1,2-Trans)-N-(4-(3-cyano-4-(((S)-1-((S)-2,3-dihydroxypropanoyl)-3,3-difluoropiperidin-4-yl)oxy)phenyl)pyridin-2-yl)-2-(pyridin-3-yl)cyclopropane-1-carboxamide]: the pIC50 in experiment [1] is 8.19; in experiment [2], 8.00.

Turning to `N#Cc1cc(-c2ccnc(NC(=O)[C@@H]3C[C@H]3c3cccnc3)c2)ccc1O[C@H]1CCN(C(=O)CO)CC1(F)F` [Example 134, (1,2-Trans)-N-(4-(3-cyano-4-(((S)-3,3-difluoro-1-(2-hydroxyacetyl)piperidin-4-yl)oxy)phenyl)pyridin-2-yl)-2-(pyridin-3-yl)cyclopropane-1-carboxamide], the negative-log IC50 (pIC50) in experiment [1] is 8.13; in experiment [2], 7.96.

On to `N#Cc1cc(-c2ccnc(NC(=O)[C@H]3C[C@H](O)C3)c2)ccc1O[C@H]1CCN(C(=O)CO)C[C@H]1F` [Example 80, (1,3-trans)-N-(4-(3-Cyano-4-(((3R,4S)-3-fluoro-1-(2-hydroxyacetyl)piperidin-4-yl)oxy)phenyl)pyridin-2-yl)-3-hydroxycyclobutane-1-carboxamide], for which the values for the pIC50 in experiment [1] and in experiment [2] were 6.95 and 7.12, respectively.

Turning to `N#Cc1cc(-c2cc(NC(=O)[C@@H]3C[C@H]3c3cccnc3)ncn2)ccc1O[C@H]1CCN(C(=O)CO)C[C@H]1F` [Example 147, (1,2-Trans)-N-(6-(3-cyano-4-(((3R,4S)-3-fluoro-1-(2-hydroxyacetyl)piperidin-4-yl)oxy)phenyl)pyrimidin-4-yl)-2-(pyridin-3-yl)cyclopropane-1-carboxamide], the pIC50 was 7.80 in experiment [1] and 7.44 in experiment [2].

As to `N#Cc1cc(-c2cc(NC(=O)C3CC3)ncn2)ccc1O[C@H]1CCN(C(=O)c2nnc[nH]2)CC1(F)F` [Example 32, (S)—N-(6-(3-cyano-4-((3,3-difluoro-1-(4H-1,2,4-triazole-3-carbonyl)piperidin-4-yl)oxy)phenyl)pyrimidin-4-yl)cyclopropanecarboxamide], the figures for the pIC50 in experiment [1] and in experiment [2] were 8.25 and 8.15, respectively.

`Cc1n[nH]c(C(=O)N2CC[C@H](Oc3ccc(-c4cc(NC(=O)C5CC5)ncn4)cc3C#N)[C@H](F)C2)n1` [Example 30, N-(6-(3-cyano-4-(((3R,4S)-3-fluoro-1-(3-methyl-1H-1,2,4-triazole-5-carbonyl)piperidin-4-yl)oxy)phenyl)pyrimidin-4-yl)cyclopropanecarboxamide]: the pIC50 in experiment [1] was 8.14; in experiment [2], 8.13.

For the compound `N#Cc1cc(-c2ccnc(NC(=O)C3CC3)c2)ccc1N1CCC[C@@H]1C(N)=O` [Example 95, (R)-1-(2-cyano-4-(2-(cyclopropanecarboxamido)pyridin-4-yl)phenyl)pyrrolidine-2-carboxamide], the pIC50 is 6.59 in experiment [1] and under 6.00 in experiment [2].

Regarding `N#Cc1cc(-c2ccnc(NC(=O)[C@@H]3C[C@@H]3c3ccccc3)c2)ccc1O[C@H]1CCN(C(=O)CO)C[C@H]1F` (stereo in doubt) [Example 71, (1,2-cis)-N-(4-(3-Cyano-4-(((3R,4S)-3-fluoro-1-(2-hydroxyacetyl)piperidin-4-yl)oxy)phenyl)pyridin-2-yl)-2-phenylcyclopropane-1-carboxamide], the pIC50 in experiment [1] is 7.29; in experiment [2] it was 6.93.

Turning to `N#Cc1cc(-c2ccnc(NC(=O)C3CC34CCOC4)c2)ccc1OC1CCOCC1` (stereo not drawn) [Example 117, N-(4-(3-Cyano-4-((tetrahydro-2H-pyran-4-yl)oxy)phenyl)pyridin-2-yl)-5-oxaspiro[2.4]heptane-1-carboxamide], the pIC50 is 6.07 in experiment [1] and under 6.00 in experiment [2].

For the compound `N#Cc1cc(-c2ccnc(NC(=O)[C@@H]3C[C@H]3c3cnco3)c2)ccc1OC1CCOCC1` (relative stereo) [Example 43, (1,2-trans)-N-(4-(3-cyano-4-((tetrahydro-2H-pyran-4-yl)oxy)phenyl)pyridin-2-yl)-2-(oxazol-5-yl)cyclopropane-1-carboxamide], the pIC50 is 7.21 in experiment [1] and 6.84 in experiment [2].

Take `COc1ccc([C@@H]2C[C@H]2C(=O)Nc2cc(-c3ccc(O[C@H]4CCN(C(=O)CO)CC4(F)F)c(C#N)c3)ncn2)cn1` [Example 113, (1R,2R)—N-(6-(3-cyano-4-(((S)-3,3-difluoro-1-(2-hydroxyacetyl)piperidin-4-yl)oxy)phenyl)pyrimidin-4-yl)-2-(6-methoxypyridin-3-yl)cyclopropane-1-carboxamide]: the pIC50 was 8.09 in experiment [1] and under 6.00 in experiment [2].

(Values after US10316049B2, “Tank-binding kinase inhibitor compounds” (Gilead Sciences, Inc., priority 2015, dated 2019).)
